# Measurements reported in patent US20030215462A1, “Use of UGT inhibitors to increase bioavailability” (priority 2001, published 2003).
# What was measured:
# UGT1A10 [1] = target: T1, UGT1A10 (Homo sapiens, UniProt Q9HAW8); experiment: in vitro; details: pH 7.5, % of control metabolism
# T1 sequence (Q9HAW8 26-530): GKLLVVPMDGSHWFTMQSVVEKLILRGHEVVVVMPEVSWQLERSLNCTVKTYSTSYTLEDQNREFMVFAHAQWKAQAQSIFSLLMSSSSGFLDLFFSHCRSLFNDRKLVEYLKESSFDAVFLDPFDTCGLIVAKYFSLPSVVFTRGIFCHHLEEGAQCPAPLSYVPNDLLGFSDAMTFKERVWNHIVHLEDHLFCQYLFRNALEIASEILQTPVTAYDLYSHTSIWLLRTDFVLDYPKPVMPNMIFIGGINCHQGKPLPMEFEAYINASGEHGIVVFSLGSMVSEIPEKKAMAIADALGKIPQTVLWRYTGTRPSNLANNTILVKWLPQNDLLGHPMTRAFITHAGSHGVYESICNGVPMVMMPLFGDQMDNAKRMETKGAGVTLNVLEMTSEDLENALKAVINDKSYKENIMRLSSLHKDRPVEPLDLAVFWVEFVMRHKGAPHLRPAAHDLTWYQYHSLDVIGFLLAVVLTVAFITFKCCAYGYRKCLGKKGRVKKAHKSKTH
# Method: (§2) Compounds were eluted using a binary solvent gradient system. Solvent A was water brought to pH 8 with NH4OH. Solvent B was methanol. Solvent flow rate was 1 ml/min and the column temperature was maintained at 50° C. Detection was at 280 nm. […] The system was then returned to the initial conditions and equilibrated for 3 min.
# UGT1A9 = target: T2, UGT1A9 (Homo sapiens, UniProt O60656); experiment: in vitro; details: pH 7.5, % of control metabolism
# T2 sequence (O60656 26-530): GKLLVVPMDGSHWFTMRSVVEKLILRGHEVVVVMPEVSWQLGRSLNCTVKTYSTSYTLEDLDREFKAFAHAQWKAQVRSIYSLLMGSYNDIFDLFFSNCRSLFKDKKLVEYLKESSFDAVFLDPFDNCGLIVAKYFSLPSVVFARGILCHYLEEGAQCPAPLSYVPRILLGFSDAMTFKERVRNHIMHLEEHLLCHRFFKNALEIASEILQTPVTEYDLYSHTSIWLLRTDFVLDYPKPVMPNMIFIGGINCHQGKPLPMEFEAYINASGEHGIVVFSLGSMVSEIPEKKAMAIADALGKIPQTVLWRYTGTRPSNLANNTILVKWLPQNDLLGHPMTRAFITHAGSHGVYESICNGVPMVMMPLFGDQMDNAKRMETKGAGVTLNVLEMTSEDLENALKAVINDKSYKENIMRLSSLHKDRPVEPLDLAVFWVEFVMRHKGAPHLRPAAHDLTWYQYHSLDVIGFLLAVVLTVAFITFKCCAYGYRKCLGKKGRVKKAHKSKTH
# Method: as §2
# UGT1A10 [2] = target: T1, UGT1A10; experiment: Inhibition of raloxifene glucuronidation by recombinant UGT1A10 Bacculosomes
# Method: as §2
# UGT1A1 [3] = target: T3, UGT1A1 (Homo sapiens, UniProt P22309); experiment: in vitro
# T3 sequence (P22309 26-533): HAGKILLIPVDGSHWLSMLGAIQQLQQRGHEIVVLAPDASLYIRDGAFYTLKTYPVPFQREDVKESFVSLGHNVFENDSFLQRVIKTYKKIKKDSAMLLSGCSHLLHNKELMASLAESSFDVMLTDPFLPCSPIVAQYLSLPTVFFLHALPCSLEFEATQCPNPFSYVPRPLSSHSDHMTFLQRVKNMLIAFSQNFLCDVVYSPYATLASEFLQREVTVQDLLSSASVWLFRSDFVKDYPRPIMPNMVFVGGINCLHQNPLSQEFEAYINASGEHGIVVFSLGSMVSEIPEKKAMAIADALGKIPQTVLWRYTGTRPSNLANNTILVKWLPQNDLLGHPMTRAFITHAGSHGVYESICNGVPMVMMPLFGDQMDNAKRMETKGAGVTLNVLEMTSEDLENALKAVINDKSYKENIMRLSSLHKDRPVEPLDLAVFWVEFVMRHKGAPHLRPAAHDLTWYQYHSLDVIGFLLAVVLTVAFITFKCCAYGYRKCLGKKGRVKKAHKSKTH
# Method: as §2
# UGT1A1 [4] = target: T3, UGT1A1; experiment: Inhibition of raloxifene glucuronidation by recombinant UGT1A1 Supersomes; details: UGT1A1
# Method: as §2
# [5] = tested on: UGT enzymes of pooled human jejunum microsomes; experiment: Inhibition of zidovudine glucuronidation in pooled human jejunum microsomes; type: biochemical; details: inhibitor 200 μM
# Method: Increasing the microsomal protein concentration to 1 mg/ml and extending the incubation time to 60 min provided meaningful metabolite levels for inhibition studies.
# [6] = tested on: UGT enzymes of pooled human jejunum microsomes; experiment: Inhibition of 2ME2 glucuronidation (MG1) in pooled human jejunum microsomes; type: biochemical; details: jejunum HJ61, 2ME2 50 μM
# Source text: (§1) Compounds were eluted using a binary solvent gradient system where solvent A was dilute phosphoric acid (pH 3) and solvent B was 80:20 acetonitrile-methanol. […] Detection was at 280 nm.
# [7] = tested on: T4, UGT enzymes of human liver microsomes; experiment: Kinetic and Ki studies of inhibitors of 7-HFC glucuronidation in human liver microsomes; type: biochemical; details: 7-HFC 20-500 μM
# T4 construct: percentage of control metabolism, 7-HFC glucuronidation; percentage of control metabolism, 7-HFC glucuronidation
# UGT1A3 = target: T5, UGT1A3 (Homo sapiens, UniProt P35503); experiment: in vitro
# T5 sequence (P35503 29-534): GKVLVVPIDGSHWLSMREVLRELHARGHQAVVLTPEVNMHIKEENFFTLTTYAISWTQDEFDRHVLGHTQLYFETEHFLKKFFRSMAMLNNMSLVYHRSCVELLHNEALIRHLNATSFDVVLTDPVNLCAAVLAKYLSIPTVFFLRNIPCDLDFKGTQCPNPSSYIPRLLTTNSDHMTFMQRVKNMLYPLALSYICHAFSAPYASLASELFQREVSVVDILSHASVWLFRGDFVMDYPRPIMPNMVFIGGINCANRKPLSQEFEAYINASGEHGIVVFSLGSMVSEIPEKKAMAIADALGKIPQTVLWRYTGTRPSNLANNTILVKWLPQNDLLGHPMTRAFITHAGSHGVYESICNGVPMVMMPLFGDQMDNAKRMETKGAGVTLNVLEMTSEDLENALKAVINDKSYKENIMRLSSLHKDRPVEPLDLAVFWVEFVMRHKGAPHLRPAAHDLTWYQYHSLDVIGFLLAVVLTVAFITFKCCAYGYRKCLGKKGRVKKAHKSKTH
# Method: as §2
# [8] = tested on: UGT enzymes of human liver microsomes; experiment: Inhibition of raloxifene glucuronidation (G1, G2) in human liver microsomes; type: biochemical; details: raloxifene 50 μM; for % of control metabolism (SD, n = 3), raloxifene glucuronide G1 / % of control metabolism (SD, n = 3), raloxifene glucuronide G2: human liver microsomes 250 μg/ml, 15 min
# Source text: Compounds were eluted using a binary solvent gradient system. […] Solvent B was methanol. […] Detection was at 280 nm.
# [9] = tested on: T6, UGT enzymes of human liver microsomes; experiment: Inhibition of 2ME2 glucuronidation (MG1, MG2) in human liver microsomes; type: biochemical; details: liver 062101, 2ME2 50 μM
# T6 construct: other: liver 062101
# Source text: as §1
# [10] = tested on: T4, UGT enzymes of human liver microsomes; experiment: Inhibition of 7-HFC glucuronidation in human liver microsomes; type: biochemical; details: inhibitor 500 μM; 7-HFC 50 μM, human liver microsomes 100 μg/ml, 15 min
# [11] = cited from earlier work
# [12] = pH 7.5, % of control metabolism, raloxifene G1
# [13] = pH 7.5, % of control metabolism, raloxifene G2
smiles,measurement,setting,value
"O=C(O)Cc1ccccc1Nc1c(Cl)cccc1Cl [Diclofenac, reference compound]","activity at 15 min, 50 µM",UGT1A10 [1]; raloxifene G1,97%
same,"activity at 15 min, 50 µM",UGT1A10 [1]; raloxifene G2,93%
same,"activity at 15 min, 50 µM",UGT1A9; raloxifene G1,74%
same,"activity at 15 min, 50 µM",UGT1A9; raloxifene G2,77%
same,"inhibition of raloxifene glucuronidation, in words",UGT1A10 [2],poor inhibitors
same,"activity at 15 min, 50 µM",UGT1A1 [3]; [12],66%
same,"activity at 15 min, 50 µM",UGT1A1 [3]; [13],73%
same,"activity at 15 min, 50 µM","UGT1A1 [3]; pH 7.5, Inhibition of raloxifene glucuronidation, G1, UGT1A1",66%
same,"activity at 15 min, 50 µM","UGT1A1 [3]; pH 7.5, Inhibition of raloxifene glucuronidation, G2, UGT1A1",73%
same,"inhibition of raloxifene glucuronidation, in words",UGT1A1 [4],poor inhibitors
same,"residual metabolism (percentage of control), zidovudine",[5],18 (2) %
same,"residual metabolism (% of control), 2ME2 MG1",[6]; inhibitor 50 μM,100 (3) %
same,"residual metabolism (% of control), 2ME2 MG1",[6]; inhibitor 100 μM,97 (4) %
same,Vmax of 7-HFC glucuronidation (fit of the experiment with this inhibitor),[7],64 ± 4 nmol/min/mg
same,Km,[7]; read-out: Km of 7-HFC glucuronidation (fit of the experiment with this inhibitor),87 ± 7 µM
same,"activity at 15 min, 50 µM",UGT1A3; [12],74%
same,"activity at 15 min, 50 µM",UGT1A3; [13],75%
same,"activity at 15 min, 50 µM","UGT1A3; pH 7.5, Inhibition of raloxifene glucuronidation, G1, UGT1A3",74%
same,"activity at 15 min, 50 µM","UGT1A3; pH 7.5, Inhibition of raloxifene glucuronidation, G2, UGT1A3",75%
same,"% of control metabolism (SD, n = 3), raloxifene glucuronide G1",[8]; inhibitor 50 μM,65 (1) %
same,"% of control metabolism (SD, n = 3), raloxifene glucuronide G1",[8]; inhibitor 100 μM,50 (3) %
same,"% of control metabolism (SD, n = 3), raloxifene glucuronide G1",[8]; inhibitor 500 μM,6 (1) %
same,"% of control metabolism (SD, n = 3), raloxifene glucuronide G2",[8]; inhibitor 50 μM,67 (1) %
same,"% of control metabolism (SD, n = 3), raloxifene glucuronide G2",[8]; inhibitor 100 μM,53 (3) %
same,"% of control metabolism (SD, n = 3), raloxifene glucuronide G2",[8]; inhibitor 500 μM,6 (1) %
same,"% of control metabolism, raloxifene G1",[8]; inhibitor 50 μM,65 (1) %
same,"% of control metabolism, raloxifene G2",[8]; inhibitor 50 μM,67 (1) %
same,"% of control metabolism, raloxifene G1",[8]; inhibitor 100 μM,50 (3) %
same,"% of control metabolism, raloxifene G2",[8]; inhibitor 100 μM,53 (3) %
same,"residual metabolism (% of control), 2ME2 MG1",[9]; inhibitor 50 μM,70 (1) %
same,"residual metabolism (% of control), 2ME2 MG2",[9]; inhibitor 50 μM,60 (1) %
same,"residual metabolism (% of control), 2ME2 MG1",[9]; inhibitor 100 μM,54 (1) %
same,"residual metabolism (% of control), 2ME2 MG2",[9]; inhibitor 100 μM,44 (3) %
"CCCN(CCC)S(=O)(=O)c1ccc(C(=O)O)cc1 [Probenecid, reference compound]","% of control metabolism (SD, n = 3), 7-HFC glucuronidation",[10],91 (1) %
same,"% of control metabolism (SD, n = 3), raloxifene glucuronide G1",[8]; inhibitor 500 μM,70 (4) %
same,"% of control metabolism (SD, n = 3), raloxifene glucuronide G2",[8]; inhibitor 500 μM,70 (1) %
same,increase in zidovudine levels on co-administration,[11]; AIDS patients and healthy volunteers,2 fold
same,reduction in diflunisal metabolism to acyl- and phenol-glucuronides,[11]; coadministration with diflunisal,50%
